Reference: ChEMBL document CHEMBL4507258 (2021)

Columns and labels:
Mu-type opioid receptor = Mu-type opioid receptor (Homo sapiens, UniProt P35372); assay: GPCRScan assay: inhibition of MOR; parameters: radioligand conc. used [nm] 1.0 – 2.0, parental cells stable HEK
[1] = target: Beta-2 adrenergic receptor (Homo sapiens) (UniProt P07550); conditions: Compound concentration 10.0 uM
D(4) dopamine receptor = D(4) dopamine receptor (Homo sapiens, UniProt P21917); assay: GPCRScan assay: inhibition of D4; parameters: radioligand conc. used [nm] 0.6 – 1.7, parental cells Stable HEK
[2] = target: Kappa-type opioid receptor (Homo sapiens, UniProt P41145); assay: GPCRScan assay: inhibition of KOR; parameters: radioligand conc. used [nm] 0.6 – 1.2, parental cells stable HEK
Kappa-type opioid receptor, sequence (P41145 whole entry): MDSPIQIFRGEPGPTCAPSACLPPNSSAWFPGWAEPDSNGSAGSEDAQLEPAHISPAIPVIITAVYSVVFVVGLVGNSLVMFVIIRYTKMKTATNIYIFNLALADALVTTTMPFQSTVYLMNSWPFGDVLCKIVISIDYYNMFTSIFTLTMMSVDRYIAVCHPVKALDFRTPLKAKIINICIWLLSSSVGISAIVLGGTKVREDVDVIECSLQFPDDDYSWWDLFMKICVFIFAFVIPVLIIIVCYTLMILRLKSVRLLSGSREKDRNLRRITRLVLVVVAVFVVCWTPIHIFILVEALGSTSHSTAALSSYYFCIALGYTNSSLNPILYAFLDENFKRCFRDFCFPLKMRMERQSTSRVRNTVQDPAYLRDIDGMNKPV

[3] = target: 5-hydroxytryptamine receptor 2C (Homo sapiens) (UniProt P28335); conditions: Compound concentration 10.0 uM
5-hydroxytryptamine receptor 2C (Homo sapiens), sequence (P28335 whole entry): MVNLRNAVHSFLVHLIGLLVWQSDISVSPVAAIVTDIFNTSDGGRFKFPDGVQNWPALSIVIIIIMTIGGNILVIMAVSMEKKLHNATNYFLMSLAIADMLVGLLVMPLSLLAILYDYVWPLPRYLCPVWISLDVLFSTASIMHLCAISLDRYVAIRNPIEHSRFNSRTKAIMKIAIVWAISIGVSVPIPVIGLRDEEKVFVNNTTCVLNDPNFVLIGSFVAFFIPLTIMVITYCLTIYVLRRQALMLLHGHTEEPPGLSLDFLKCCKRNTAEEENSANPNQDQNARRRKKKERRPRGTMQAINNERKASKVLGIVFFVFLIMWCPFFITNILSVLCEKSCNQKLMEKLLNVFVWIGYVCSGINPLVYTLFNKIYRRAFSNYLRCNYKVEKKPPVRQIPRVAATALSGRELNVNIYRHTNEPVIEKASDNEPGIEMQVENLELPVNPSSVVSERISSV

[4] = target: 5-hydroxytryptamine receptor 1A (Homo sapiens, UniProt P08908); assay: GPCRScan assay: inhibition of 5-HT1A; parameters: radioligand conc. used [nm] 0.5 – 1.0, parental cells stable CHO
5-hydroxytryptamine receptor 1A, sequence (P08908 whole entry): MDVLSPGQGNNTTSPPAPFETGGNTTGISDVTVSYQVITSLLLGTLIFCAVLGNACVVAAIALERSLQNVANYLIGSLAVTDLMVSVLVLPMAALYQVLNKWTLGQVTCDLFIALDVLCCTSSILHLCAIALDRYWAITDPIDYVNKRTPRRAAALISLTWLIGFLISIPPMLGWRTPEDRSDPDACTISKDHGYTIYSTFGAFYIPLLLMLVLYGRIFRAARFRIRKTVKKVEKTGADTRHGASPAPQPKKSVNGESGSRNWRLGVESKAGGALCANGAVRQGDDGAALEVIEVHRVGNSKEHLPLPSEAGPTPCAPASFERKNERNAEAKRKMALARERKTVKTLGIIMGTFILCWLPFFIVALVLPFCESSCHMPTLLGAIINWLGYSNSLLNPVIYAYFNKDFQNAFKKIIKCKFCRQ

[5] = target: Muscarinic acetylcholine receptor M5 (Homo sapiens) (UniProt P08912); assay: Muscarinic M5 receptors (h) CEREP ligand profiling; conditions: Compound concentration 10.0 uM
Muscarinic acetylcholine receptor M5 (Homo sapiens), sequence (P08912 whole entry): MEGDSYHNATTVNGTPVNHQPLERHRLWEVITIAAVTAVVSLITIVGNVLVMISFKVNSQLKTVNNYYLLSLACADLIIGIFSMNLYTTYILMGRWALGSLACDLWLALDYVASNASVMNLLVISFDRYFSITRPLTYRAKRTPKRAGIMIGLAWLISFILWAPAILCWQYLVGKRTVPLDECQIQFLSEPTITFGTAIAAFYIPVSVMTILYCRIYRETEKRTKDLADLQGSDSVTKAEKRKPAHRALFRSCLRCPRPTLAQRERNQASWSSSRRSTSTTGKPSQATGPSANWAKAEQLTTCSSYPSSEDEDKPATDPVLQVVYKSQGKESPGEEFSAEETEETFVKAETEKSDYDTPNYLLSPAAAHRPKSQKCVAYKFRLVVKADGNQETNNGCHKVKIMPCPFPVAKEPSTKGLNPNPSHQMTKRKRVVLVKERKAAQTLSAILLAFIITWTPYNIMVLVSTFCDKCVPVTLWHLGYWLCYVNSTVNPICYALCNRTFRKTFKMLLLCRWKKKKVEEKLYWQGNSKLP

[6] = target: Interleukin-1 beta (Homo sapiens) (UniProt P01584); assay: Interleukin-1beta CEREP ligand profiling; conditions: Compound concentration 10.0 uM
Interleukin-1 beta (Homo sapiens), sequence (P01584 117-269 limits assumed): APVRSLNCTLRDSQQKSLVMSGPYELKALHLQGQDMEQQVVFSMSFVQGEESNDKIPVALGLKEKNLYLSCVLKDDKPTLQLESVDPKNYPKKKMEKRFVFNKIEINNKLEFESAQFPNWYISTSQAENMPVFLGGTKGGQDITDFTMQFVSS

[7] = target: Vasoactive intestinal peptide receptor (Homo sapiens) (UniProt P41587+P32241+P41586); assay: Vasoactive intestinal peptide receptor CEREP ligand profiling; format: protein assay; conditions: Compound concentration 10.0 uM
[8] = target: Serine/threonine-protein kinase SIK1 (Homo sapiens, UniProt P57059); assay: Inhibition of SIK1 at compound concentration of 10.0 uM using the ScanMax (DiscoverX)
[9] = target: Muscarinic acetylcholine receptor M1 (Homo sapiens) (UniProt P11229); assay: Muscarinic M1 receptors (h) CEREP ligand profiling; conditions: Compound concentration 10.0 uM
[10] = target: 5-hydroxytryptamine receptor 1B (Homo sapiens) (UniProt P28222); assay: 5-Hydroxytryptamine1B CEREP ligand profiling; conditions: Compound concentration 10.0 uM
[11] = target: Type-2 angiotensin II receptor (Homo sapiens) (UniProt P50052); assay: Angiotensin AT2 receptor (h) CEREP ligand profiling; conditions: Compound concentration 10.0 uM
[12] = target: Serine/threonine-protein kinase DCLK1 (Homo sapiens, UniProt O15075); assay: Inhibition of DCLK1 at compound concentration of 10.0 uM using the ScanMax (DiscoverX)
Serine/threonine-protein kinase DCLK1, sequence (O15075 whole entry): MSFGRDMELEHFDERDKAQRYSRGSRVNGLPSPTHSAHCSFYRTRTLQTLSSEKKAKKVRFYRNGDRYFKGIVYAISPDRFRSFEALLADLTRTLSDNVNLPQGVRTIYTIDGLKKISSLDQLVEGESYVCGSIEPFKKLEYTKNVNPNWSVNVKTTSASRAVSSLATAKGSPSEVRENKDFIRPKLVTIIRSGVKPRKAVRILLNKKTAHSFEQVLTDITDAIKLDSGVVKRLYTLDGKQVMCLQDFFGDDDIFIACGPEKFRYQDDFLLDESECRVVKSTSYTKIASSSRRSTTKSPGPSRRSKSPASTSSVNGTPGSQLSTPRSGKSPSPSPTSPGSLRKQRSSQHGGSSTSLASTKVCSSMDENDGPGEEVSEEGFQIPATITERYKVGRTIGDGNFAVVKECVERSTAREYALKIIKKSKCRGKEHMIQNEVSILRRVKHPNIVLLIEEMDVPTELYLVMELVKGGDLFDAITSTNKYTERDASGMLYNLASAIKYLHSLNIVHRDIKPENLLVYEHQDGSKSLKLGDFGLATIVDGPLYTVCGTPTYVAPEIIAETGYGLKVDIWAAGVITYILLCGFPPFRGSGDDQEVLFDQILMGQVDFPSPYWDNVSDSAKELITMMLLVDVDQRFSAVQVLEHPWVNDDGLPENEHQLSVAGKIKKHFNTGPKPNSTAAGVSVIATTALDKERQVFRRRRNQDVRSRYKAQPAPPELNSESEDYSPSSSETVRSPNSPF

[13] = target: Vasopressin V1a receptor (Homo sapiens) (UniProt P37288); assay: Vasopresine V1a receptor (h) CEREP ligand profiling; conditions: Compound concentration 10.0 uM
[14] = target: Beta-1 adrenergic receptor (Homo sapiens) (UniProt P08588); assay: beta1-adrenoceptor (h) CEREP ligand profiling; conditions: Compound concentration 10.0 uM
Beta-1 adrenergic receptor (Homo sapiens), sequence (P08588 whole entry, looked up): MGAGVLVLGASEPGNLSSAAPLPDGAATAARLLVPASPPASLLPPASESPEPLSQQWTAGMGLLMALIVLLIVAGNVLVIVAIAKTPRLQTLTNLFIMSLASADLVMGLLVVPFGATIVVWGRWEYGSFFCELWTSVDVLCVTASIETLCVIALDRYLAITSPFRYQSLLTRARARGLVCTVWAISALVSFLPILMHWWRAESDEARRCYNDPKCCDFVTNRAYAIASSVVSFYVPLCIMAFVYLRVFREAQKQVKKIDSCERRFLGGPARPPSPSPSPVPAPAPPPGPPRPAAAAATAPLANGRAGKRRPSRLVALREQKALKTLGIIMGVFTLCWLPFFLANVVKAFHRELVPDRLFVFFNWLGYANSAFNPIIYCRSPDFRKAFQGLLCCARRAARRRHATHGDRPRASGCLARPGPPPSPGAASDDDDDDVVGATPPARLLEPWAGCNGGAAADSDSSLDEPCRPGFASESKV

Sodium channel (site 2) = Sodium channel (site 2) (Homo sapiens, UniProt P35498+P35499+Q01118+Q14524+Q15858+Q99250+Q9NY46+Q9UI33+Q9UQD0+Q9Y5Y9); assay: Na+ channel (site 2) CEREP ligand profiling; format: protein assay; conditions: compound concentration 10 uM
[15] = target: P2X receptor (Rattus norvegicus) (UniProt P51579+P49653+P51578+Q64663+P47824+P51577+P49654); assay: P2X-purinergic receptor CEREP ligand profiling; format: protein assay; conditions: Compound concentration 10.0 uM
[16] = target: Calcitonin gene-related peptide type 1 receptor (Homo sapiens) (UniProt Q16602); assay: Calcitonin gene-related peptide CEREP ligand profiling; conditions: Compound concentration 10.0 uM
Calcitonin gene-related peptide type 1 receptor (Homo sapiens), sequence (Q16602 whole entry): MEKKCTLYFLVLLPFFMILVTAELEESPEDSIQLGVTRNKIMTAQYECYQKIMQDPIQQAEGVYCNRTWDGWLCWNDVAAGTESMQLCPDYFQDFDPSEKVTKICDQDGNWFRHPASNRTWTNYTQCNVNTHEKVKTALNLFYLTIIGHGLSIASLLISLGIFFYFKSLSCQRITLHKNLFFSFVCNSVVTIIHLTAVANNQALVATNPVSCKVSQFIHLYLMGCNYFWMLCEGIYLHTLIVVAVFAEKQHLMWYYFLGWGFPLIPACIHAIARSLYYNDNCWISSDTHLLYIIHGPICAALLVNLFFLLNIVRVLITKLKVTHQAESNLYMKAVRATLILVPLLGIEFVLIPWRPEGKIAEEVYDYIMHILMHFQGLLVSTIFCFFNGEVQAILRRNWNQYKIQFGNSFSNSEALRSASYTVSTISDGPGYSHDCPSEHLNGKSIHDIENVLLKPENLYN

[17] = target: 5-hydroxytryptamine receptor 2A (Homo sapiens) (UniProt P28223); assay: 5-Hydroxytryptamine2A (h) CEREP ligand profiling; conditions: Compound concentration 10.0 uM
[18] = target: D(2) dopamine receptor (Homo sapiens) (UniProt P14416); assay: Dopamine D2 receptor (h) CEREP ligand profiling; conditions: Compound concentration 10.0 uM
[19] = target: Beta-2 adrenergic receptor (Homo sapiens) (UniProt P07550); assay: beta2-adrenoceptor (h) CEREP ligand profiling; conditions: Compound concentration 10.0 uM
[20] = target: Gastrin/cholecystokinin type B receptor (Homo sapiens) (UniProt P32239); assay: CholecystokininB receptor (h) CEREP ligand profiling; conditions: Compound concentration 10.0 uM
Gastrin/cholecystokinin type B receptor (Homo sapiens), sequence (P32239 whole entry): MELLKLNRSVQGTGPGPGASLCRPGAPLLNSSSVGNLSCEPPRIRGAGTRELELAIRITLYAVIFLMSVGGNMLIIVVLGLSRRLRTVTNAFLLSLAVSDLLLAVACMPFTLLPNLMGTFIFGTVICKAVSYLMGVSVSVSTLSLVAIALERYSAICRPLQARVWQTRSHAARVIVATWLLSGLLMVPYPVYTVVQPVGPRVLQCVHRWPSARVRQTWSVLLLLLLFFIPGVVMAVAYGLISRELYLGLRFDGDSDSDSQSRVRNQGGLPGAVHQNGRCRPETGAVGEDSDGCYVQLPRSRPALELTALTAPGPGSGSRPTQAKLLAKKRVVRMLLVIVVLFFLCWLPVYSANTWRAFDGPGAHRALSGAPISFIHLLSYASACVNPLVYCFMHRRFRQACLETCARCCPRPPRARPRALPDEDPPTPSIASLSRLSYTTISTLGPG

[21] = target: Platelet-derived growth factor receptor (Homo sapiens) (UniProt P09619+P16234); assay: Platlet-derived growth factor receptor CEREP ligand profiling; format: protein-complex assay; conditions: Compound concentration 10.0 uM

Beta-2 adrenergic receptor (Homo sapiens), sequence (P07550 whole entry, looked up): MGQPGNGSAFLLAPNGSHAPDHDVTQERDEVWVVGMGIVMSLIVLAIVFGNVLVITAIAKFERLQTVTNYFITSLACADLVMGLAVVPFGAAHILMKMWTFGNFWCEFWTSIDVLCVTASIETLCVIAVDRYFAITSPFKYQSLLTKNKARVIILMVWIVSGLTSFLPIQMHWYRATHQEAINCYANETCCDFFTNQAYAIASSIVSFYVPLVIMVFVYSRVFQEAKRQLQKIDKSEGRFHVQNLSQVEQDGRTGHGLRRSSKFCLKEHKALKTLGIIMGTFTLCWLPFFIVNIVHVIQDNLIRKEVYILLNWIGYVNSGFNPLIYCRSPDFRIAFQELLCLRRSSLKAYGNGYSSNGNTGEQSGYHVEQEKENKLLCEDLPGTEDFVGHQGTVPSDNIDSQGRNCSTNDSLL
Mu-type opioid receptor, sequence (P35372 whole entry): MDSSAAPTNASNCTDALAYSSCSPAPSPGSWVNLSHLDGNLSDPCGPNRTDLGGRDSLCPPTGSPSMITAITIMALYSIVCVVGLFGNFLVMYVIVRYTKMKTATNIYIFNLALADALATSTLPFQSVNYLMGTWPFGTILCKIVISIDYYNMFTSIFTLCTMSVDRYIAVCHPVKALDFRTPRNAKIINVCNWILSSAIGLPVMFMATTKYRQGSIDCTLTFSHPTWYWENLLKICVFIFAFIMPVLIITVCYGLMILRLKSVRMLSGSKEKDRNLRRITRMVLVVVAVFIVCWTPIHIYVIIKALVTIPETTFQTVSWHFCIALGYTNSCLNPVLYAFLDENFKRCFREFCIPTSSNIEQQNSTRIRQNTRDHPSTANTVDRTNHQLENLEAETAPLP

SMILES: CCCCN(CCCC)C(=O)CN1C[C@@H](c2cc(OC)c3c(c2)OCO3)[C@H](C(=O)O)[C@H]1CC(C)(C)CCC [A-545]
- Ki (Mu-type opioid receptor): 2780 nM
- inhibition [1]: -6.31%
- Ki (D(4) dopamine receptor): 5.5 nM
- Ki ([2]; read-out: Ki): 2780 nM
- Ki ([2]; read-out: pKi (converted)): 2820 nM
- inhibition [3]: 15.7%
- Ki [4]: 189 nM

SMILES: CCCCN(CCCC)C(=O)CN1C[C@H](c2cc(OC)c3c(c2)OCO3)[C@@H](C(=O)O)[C@@H]1CC(C)(C)CCC [ABT-546]
- inhibition [5]: < 10%
- inhibition [6]: < 10%
- inhibition [7]: < 10%
- Kd [8]: > 10000 nM (not active)
- inhibition [9]: < 10%
- inhibition [10]: < 10%
- inhibition [11]: < 10%
- Kd [12]: > 10000 nM (not active)
- inhibition [13]: < 10%
- inhibition [14]: < 10%
- inhibition at 10 µM (Sodium channel (site 2)): < 10% (not active)
- inhibition [15]: 37%
- inhibition [16]: < 10%
- inhibition [17]: < 10%
- inhibition [18]: < 10%
- inhibition [19]: < 10%
- inhibition [20]: < 10%
- inhibition [21]: < 10%
